Laboratory results as given in BindingDB's records for doi:10.1016/j.ejmech.2020.112858 (University of Pisa, 2020).

How the values were obtained:
[1] = Competitive antagonist activity at human CB2R expressed in CHO cell membranes assessed as rightward shift of N-cycloheptyl-1,2-dihydro-5-bromo-1-(4-fluoro benzyl)-6-methyl-2-oxo-pyridine-3-carboxamide-induced GTPgammaS binding by measuring N-cycloheptyl-1,2-dihydro-5-bromo-1-(4-fluoro benzyl)-6-methyl-2-oxo-pyridine-3-carboxamide EC50 at 100
[2] = Competitive antagonist activity at human CB2R expressed in CHO cell membranes assessed as rightward shift of N-cycloheptyl-1,2-dihydro-5-bromo-1-(4-fluoro benzyl)-6-methyl-2-oxo-pyridine-3-carboxamide-induced GTPgammaS binding by measuring N-cycloheptyl-1,2-dihydro-5-bromo-1-(4-fluoro benzyl)-6-methyl-2-oxo-pyridine-3-carboxamide EC50 at 300
[3] = Competitive antagonist activity at human CB2R expressed in CHO cell membranes assessed as rightward shift of N-cycloheptyl-1,2-dihydro-5-bromo-1-(4-fluoro benzyl)-6-methyl-2-oxo-pyridine-3-carboxamide-induced GTPgammaS binding by measuring N-cycloheptyl-1,2-dihydro-5-bromo-1-(4-fluoro benzyl)-6-methyl-2-oxo-pyridine-3-carboxamide EC50 at 1000
[4] = Non-competitive antagonist activity at human CB2R expressed in CHO cell membranes assessed as N-cycloheptyl-1,2-dihydro-1-(4-fluorobenzyl)-6-methyl-2-oxo-5-phenyl-pyridine-3-carboxamide EC50 at 1000 nM preincubated with compound for 30 mins followed by GTPgammaS addition and measured after 90 mins by [35S]GTPgammaS assay (Rvb = 19.4 nM)
[5] = Non-competitive antagonist activity at human CB2R expressed in CHO cell membranes assessed as N-cycloheptyl-1,2-dihydro-1-(4-fluorobenzyl)-6-methyl-2-oxo-5-phenyl-pyridine-3-carboxamide EC50 at 300 nM preincubated with compound for 30 mins followed by GTPgammaS addition and measured after 90 mins by [35S]GTPgammaS assay (Rvb = 19.4 nM)
[6] = Non-competitive antagonist activity at human CB2R expressed in CHO cell membranes assessed as N-cycloheptyl-1,2-dihydro-1-(4-fluorobenzyl)-6-methyl-2-oxo-5-phenyl-pyridine-3-carboxamide EC50 at 100 nM preincubated with compound for 30 mins followed by GTPgammaS addition and measured after 90 mins by [35S]GTPgammaS assay (Rvb = 19.4 nM)

## COc1ccc(-c2cc(C(=O)NC3CCCCCC3)c(=O)n(Cc3ccc(F)cc3)c2C)cc1
[1]
  EC50: 81 nM
[2]
  EC50: 192 nM
[3]
  EC50: 711 nM
[4]
  EC50: 103 nM
[5]
  EC50: 62 nM
[6]
  EC50: 102 nM
